Tests used:
[1] = system: human mucoepidermoid pulmonary carcinoma cell line NCI-H292; experiment: Mucin secretion (MUC4, MUC5AC) by ELISA in NCI-H292 cells; format: cell-based; settings: 24 hours, read-out: % increase in mucin secretion vs. non-treated control group; for activation at 0.8 µg/mL: 0.8 μg/mL; for activation at 4 µg/mL: 4 μg/mL; for activation at 20 µg/mL: 20 μg/mL; for activation at 100 µg/mL: 100 μg/mL
Procedure: 2×10^5 cells/well of the human mucoepidermoid pulmonary carcinoma cell line NCI-H292 (ATCC, #CRL-1848) were seeded on a 96-well plate, and treated with 3′,4′,5-trimethoxy flavone derivatives at various concentrations of 0.16 to 100 μg/mL for 24 hours. Thereafter, secretion levels of representative transmembrane mucin MUC4 and secretory mucin MUC5AC were measured by enzyme-linked immunosorbent assay (ELISA).

[2] = system: rabbit model of dry eye syndrome; experiment: Rose Bengal assay of ocular surface damage in N-acetylcysteine-induced rabbit dry eye syndrome model; format: in vivo, New Zealand White (NZW) rabbits; settings: 0.5% solution instilled into conjunctival sac 4 times/day (0.1 mL) for seven days; Mean ± S.D.
Procedure: (§1) Male New Zealand White (NZW) rabbits were randomly assigned into two groups, each consisting of 5 animals. In order to induce dry eye syndrome, N-acetylcysteine was first dissolved at a concentration of 20% in physiological saline. Then, the rabbit's lower eyelid was pulled slightly away from the globe to form a cup shape and the above-prepared N-acetylcysteine solution was instilled into the conjunctival sac six times every 2 hours, resulting in establishment of an animal model of dry eye syndrome. 3′,4′,5-trimethoxy flavone derivatives were dissolved at a concentration of 0.5% in a 0.1N sodium hydroxide solution which was then titrated to pH 7.0 to 8.0 with 10% acetic acid. From the following day after induction of dry eye syndrome, the titrated 3′,4′,5-trimethoxy flavone derivatives were repeatedly instilled into conjunctival sacs of animals at a dose frequency of 4 times/day (0.1 mL/each time) for seven consecutive days. On the next day following the induction of dry eye syndrome and upon completion of the experiment, the degree of ocular surface damage was evaluated to calculate a damage decrease rate (%) using Rose Bengal assay, and mucus secretion in the conjunctiva was quantitatively analyzed using Alcian blue assay. More specifically referring to Rose Bengal assay, 10 μl of a 1% Rose Bengal solution was dropped into the eyes of animals, and distribution and intensity of Rose Bengal staining were scored according to the method disclosed in Urashima et al., Cornea, 23:613-9, 2004. For Alcian blue assay, the rabbit's conjunctivae were excised, weighed, stained with a 0.1% Alcian blue solution for 2 hours and then washed with a 0.25 M sucrose solution. Following extraction with a 0.5 M magnesium chloride solution, the absorbance was measured at 605 nm.

[3] = system: rabbit model of dry eye syndrome; experiment: Alcian blue assay of conjunctival mucus secretion in N-acetylcysteine-induced rabbit dry eye syndrome model; format: in vivo, New Zealand White (NZW) rabbits; settings: 0.5% solution instilled 4 times/day (0.1 mL) for seven days; conjunctiva, absorbance at 605 nm; Mean ± S.D.
Procedure: as §1

Compound | activation at 0.8 µg/mL [1] | activation at 4 µg/mL [1] | activation at 20 µg/mL [1] | activation at 100 µg/mL [1] | Rose Bengal Assay Damage decrease rate (%) [2] | Alcian Blue Assay Absorbance/g tissue [3]
COc1ccc(-c2cc(=O)c3c(OC)cc(OCC(=O)O)cc3o2)cc1OC.O [7-carboxymethyloxy-3′,4′,5-trimethoxy flavone monohydrate] | 24.8% | 39.1% | 52.5% | 75.9% | 88.5 ± 4.7 % | 0.38 ± 0.08 Absorbance/g tissue
COc1ccc(-c2cc(=O)c3c(OC)cc(OCc4nnn[nH]4)cc3o2)cc1OC [Example 1, 7-(tetrazol-5-ylmethyloxy)-3′,4′,5-trimethoxy flavone] | 18.7% | 28.1% | 57.8% | 52% | – | –
COc1ccc(-c2cc(=O)c3c(OC)cc(OCC(N)=O)cc3o2)cc1OC [Example 3, 7-{(carbamoyl)methyloxy}-3′,4′,5-trimethoxy flavone] | 2.2% | 6.6% | 10.4% | 15.8% | – | –
COc1ccc(-c2cc(=O)c3c(OC)cc(OCC(=O)NC#N)cc3o2)cc1OC [Example 4, 7-{(N-cyanocarbamoyl)-methyloxy}-3′,4′,5-trimethoxy flavone] | – | – | 4.3% | 25.2% | 83.8 ± 4.6 % | 0.24 ± 0.19 Absorbance/g tissue
COc1ccc(-c2cc(=O)c3c(OC)cc(OCC(=O)NS(=O)(=O)c4ccccc4)cc3o2)cc1OC [Example 5, 7-{(N-benzenesulfonylcarbamoyl)methyloxy}-3′,4′,5-trimethoxy flavone] | 43.9% | 45.4% | 35.4% | 70.9% | 70.1 ± 5.2 % | 0.32 ± 0.09 Absorbance/g tissue
COc1ccc(-c2cc(=O)c3c(OC)cc(OCC(=O)NS(N)(=O)=O)cc3o2)cc1OC [Example 8, 7-{(aminosulfonylcarbamoyl)methyloxy}-3′,4′,5-trimethoxy flavone] | 4.4% | 10.2% | 15.4% | 21.4% | – | –
COc1ccc(-c2cc(=O)c3c(OC)cc(OCC(=O)NS(C)(=O)=O)cc3o2)cc1OC [Example 9, 7-{(methylsulfonylcarbamoyl)methyloxy}-3′,4′,5-trimethoxy flavone] | 9.7% | 15.9% | 37.4% | 43.3% | 76.8 ± 8.4 % | 0.35 ± 0.13 Absorbance/g tissue
COc1ccc(-c2cc(=O)c3c(OC)cc(OCC(=O)NC(N)=O)cc3o2)cc1OC [Example 10, 7-{(carbamylcarbamoyl)methyloxy}-3′,4′,5-trimethoxy flavone] | – | 6.7% | 15.4% | 25.9% | – | –
COc1ccc(-c2cc(=O)c3c(OC)cc(OCC(=O)NC(C)=O)cc3o2)cc1OC [Example 12, 7-{(acetylcarbamoyl)methyloxy}-3′,4′,5-trimethoxy flavone] | 15.2% | 13.6% | 20.5% | 30.2% | – | –

From patent US8203011B2, “3′,4′,5-trimethoxy flavone derivatives as stimulant of mucus secretion, method for the same, and pharmaceutical composition comprising the same” (Dong-A Pharm. Co., Ltd., priority 2007, dated 2012)
